Patent US20190127366A1 (LifeSci Pharmaceuticals, Inc., priority 2015, published 2019)

Target: T1, human complement factor D (Homo sapiens, UniProt P00746)
T1 construct: purchased R&D Systems 1824-SE
Assay: In vitro enzyme inhibition (Z-Lys-SBzl/DTNB absorbance assay)
Assay type: biochemical
Details: Complement Factor D (R&D Systems), substrate Z-Lys-SBzl, A405 nm; read-out: CFD IC50
Procedure: The ability of the compounds disclosed herein to inhibit human complement factor D inhibitory activity was quantified according to the 12-step protocol provided below. • 1. Prepare assay buffer: 50 mM Tris/HCl, pH 7.5, 1 M NaCl. • 2. Dilute 10 mM Complement Factor D inhibitor Nafamostat Mesilate (Selleckchem, Catalog #S1386) solution from 10000 μM to 9.77 μM in 100% DMSO, 8 concentrations. Then dilute the serial concentrations of Nafamostat Mesilate 20-fold in assay buffer. • 3. Add 10 μl diluted Nafamostat Mesilate duplicated into each of the inhibitor control well of a 96-well plate (Corning, Catalog #3599). Final concentrations were 50 μM, 25 μM, 12.5 μM, 6.25 μM, 3.125 μM, 0.781 μM, 0.195 μM and 0.049 μM. 0.5% DMSO was in each well finally. • 4. Dilute 20 mM test compounds from 10000 μM to […] in 100% DMSO, 6-fold dilution, 8 concentrations. Then dilute the serial concentrations of test compounds 20-fold in assay buffer. • 5. Add 10 μl diluted test compounds duplicated into the 96-well plate. Final concentrations were 50 μM, 8.33 μM, 1.39 μM, 0.23 μM, 0.0386 μM, 0.0064 μM, 0.0011 μM and 0.0002 μM. 0.5% DMSO was in each well finally. • 6. Dilute 20 mM substrate Z-Lys-SBzl (Bachem, Cat #M-1300) to 200 μM in assay buffer with 200 μM DTNB(Sigma, Catalog #D8130). • 7. Dilute 738 ng/μL Complement Factor D (R&D Systems, Catalog #1824-SE) to 6.25 ng/μL in assay buffer. Add 40 μl diluted Complement Factor D in the 96-well plate. • 8. Positive control well contains Complement Factor D without test compound. Negative control well contains neither Complement Factor D nor test compound. Using assay buffer, bring the total volume of all controls to 50 μl. • 9. Pre-incubate the plate for 5 min at room temperature. • 10. Add 50 μl of diluted substrate/DTNB mixture into each well. Mix the reagents completely by shaking the plate gently for 30 sec. • 11. For kinetic reading: Immediately start measuring absorbance (A405 nm) continuously and record data every 30sec for 60 min. • 12. Data analysis • Inhibition activity of compound was evaluated by IC50. IC50 was calculated according the dose-response curve of compound fitted using GraphPadPrism with “log(inhibitor)-response (variable slope)” equation. • % inhibition was calculated by using following equation:
[formula] • Mean(NC): The average value of the negative control wells' A405 nm values. • Mean(PC): The average value of the positive control wells' A405 nm values.
The ability of the compounds in Table 2 to inhibit human complement factor D inhibitory activity was determined.

T1 sequence (P00746 26-253): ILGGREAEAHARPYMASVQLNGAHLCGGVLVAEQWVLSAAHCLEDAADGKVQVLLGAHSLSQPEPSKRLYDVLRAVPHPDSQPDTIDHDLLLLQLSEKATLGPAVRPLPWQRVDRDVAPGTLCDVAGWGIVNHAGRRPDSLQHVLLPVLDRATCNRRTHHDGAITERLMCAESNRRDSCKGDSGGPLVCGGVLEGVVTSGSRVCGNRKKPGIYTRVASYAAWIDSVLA

NC(=O)c1nn(CC(=O)N2[C@H]3CC[C@H](C3)[C@@H]2C(=O)Nc2cccc(Cl)n2)c2ccccc12 [Example 19, 1-(2-((1S,3R,4R)-3-((6-chloropyridin-2-yl)carbamoyl)-2-azabicyclo[2.2.1]heptan-2-yl)-2-oxoethyl)-1H-indazole-3-carboxamide]
IC50: 0.1 to 1 µM

NC(=O)c1nn(CC(=O)N2[C@H](C(=O)Nc3cccc(Br)n3)C[C@@H]3CCC[C@@H]32)c2ccccc12 [Example 164, 1-(2-((2S,3aS,6aS)-2-((6-bromopyridin-2-yl)carbamoyl)hexahydrocyclopenta[b]pyrrol-1(2H)-yl)-2-oxoethyl)-1H-indazole-3-carboxamide]
IC50: 0.1 to 1 µM

NC(=O)c1nn(CC(=O)N2[C@@H]3CC[C@@H](C3)[C@H]2C(=O)NCc2cccc(Cl)c2F)c2ccc(CCO)cc12 [Example 132]
IC50: 1 to 10 µM

NC(=O)c1nn(CC(=O)N2CCNCCC2C(=O)NCc2cccc(Cl)c2F)c2ccccc12 (centres unmarked) [Example 35, 1-(2-(7-((3-chloro-2-fluorobenzyl)carbamoyl)-1,4-diazepan-1-yl)-2-oxoethyl)-1H-indazole-3-carboxamide 2,2,2-trifluoroacetate]
IC50: 1 to 10 µM

NC(=O)c1nn(CC(=O)N2[C@@H]3CC[C@@H](C3)[C@H]2C(=O)Nc2cccc(F)n2)c2ccccc12 [Example 53, 1-(2-((1R,3S,4S)-3-((6-fluoropyridin-2-yl)carbamoyl)-2-azabicyclo[2.2.1]heptan-2-yl)-2-oxoethyl)-1H-indazole-3-carboxamide]
IC50: 1 to 10 µM

NC(=O)CC(NC(=O)[C@@H]1[C@H]2CC[C@H](C2)N1C(=O)Cn1nc(C(N)=O)c2ccccc21)c1cccc(Cl)c1F (stereo partly drawn) [Example 144, 1-(2-((1R,3S,4S)-3-((3-amino-1-(3-chloro-2-fluorophenyl)-3-oxopropyl)carbamoyl)-2-azabicyclo[2.2.1]heptan-2-yl)-2-oxoethyl)-1H-indazole-3-carboxamide]
IC50: 1 to 10 µM

O=C(NCCO)c1nn(CC(=O)N2[C@@H]3CC[C@@H](C3)[C@H]2C(=O)Nc2cccc(Cl)n2)c2ccccc12 [Example 89, 1-(2-((1R,3S,4S)-3-((6-chloropyridin-2-yl)carbamoyl)-2-azabicyclo[2.2.1]heptan-2-yl)-2-oxoethyl)-N-(2-hydroxyethyl)-1H-indazole-3-carboxamide]
IC50: 1 to 10 µM

CC(=O)c1nn(CC(=O)N2[C@@H]3CC[C@@H](C3)[C@H]2C(=O)Nc2cccc(Cl)n2)c2ccc(F)cc12 [Example 91, (1R,3S,4S)-2-(2-(3-acetyl-5-fluoro-1H-indazol-1-yl)acetyl)-N-(6-chloropyridin-2-yl)-2-azabicyclo[2.2.1]heptane-3-carboxamide]
IC50: 0.1 to 1 µM

NC(=O)c1nn(CC(=O)N2[C@H](C(=O)Nc3cccc(Cl)n3)C[C@@H]3CCC[C@@H]32)c2ccc(C3CC3)cc12 [Example 162, 1-(2-((2S,3aS,6aS)-2-((6-chloropyridin-2-yl)carbamoyl)hexahydrocyclopenta[b]pyrrol-1(2H)-yl)-2-oxoethyl)-5-cyclopropyl-1H-indazole-3-carboxamide]
IC50: 0.1 to 1 µM

NC(=O)c1nn(CC(=O)N2[C@H]3CC[C@H](CC3)[C@@H]2C(=O)Nc2cccc(Cl)n2)c2ccccc12 [Example 155, (1S,3R,4S)-2-(2-(3-carbamoyl-1H-indazol-1-yl)acetyl)-N-(6-chloropyridin-2-yl)-2-azabicyclo[2.2.2]octane-3-carboxamide]
IC50: 1 to 10 µM

N#Cc1cccc(NC(=O)[C@@H]2[C@H]3CC[C@H](C3)N2C(=O)Cn2nc(C(N)=O)c3ccccc32)n1 [Example 49, 1-(2-((1R,3S,4S)-3-((6-cyanopyridin-2-yl)carbamoyl)-2-azabicyclo[2.2.1]heptan-2-yl)-2-oxoethyl)-1H-indazole-3-carboxamide]
IC50: 1 to 10 µM

CCOC(=O)[C@@H]1C[C@@H](C(=O)NCc2cccc(Cl)c2F)N1C(=O)Cn1nc(C(N)=O)c2ccccc21 (relative stereo) [Example 194, trans-ethyl 1-(2-(3-carbamoyl-1H-indazol-1-yl)acetyl)-4-((3-chloro-2-fluorobenzyl)carbamoyl)azetidine-2-carboxylate]
IC50: 0.1 to 1 µM

Cc1ccc2c(c1)c(C(N)=O)nn2CC(=O)N1[C@@H]2CC[C@@H](C2)[C@H]1C(=O)NCc1cccc(Cl)c1F [Example 60, 1-(2-((1R,3S,4S)-3-((3-chloro-2-fluorobenzyl)carbamoyl)-2-azabicyclo[2.2.1]heptan-2-yl)-2-oxoethyl)-5-methyl-1H-indazole-3-carboxamide]
IC50: 0.1 to 1 µM

COc1ccc2c(c1)c(C(C)=O)nn2CC(=O)N1[C@@H]2CC[C@@H](C2)[C@H]1C(=O)Nc1cccc(Cl)n1 [Example 79, (1R,3S,4S)-2-(2-(3-acetyl-5-methoxy-1H-indazol-1-yl)acetyl)-N-(6-chloropyridin-2-yl)-2-azabicyclo[2.2.1]heptane-3-carboxamide]
IC50: 0.1 to 1 µM

NC(=O)c1nn(CC(=O)N2[C@@H](C(=O)Nc3cccc(Cl)n3)C[C@H]3CCC[C@H]32)c2ccccc12 [Example 171, 1-(2-((2R,3aR,6aR)-2-((6-chloropyridin-2-yl)carbamoyl)hexahydrocyclopenta[b]pyrrol-1(2H)-yl)-2-oxoethyl)-1H-indazole-3-carboxamide]
IC50: > 10 µM

NC(=O)c1nn(CC(=O)N2[C@@H]3CC[C@@H](C3)[C@H]2C(=O)Nc2cccc(Cl)n2)c2ccc(N)cc12 [Example 75, 5-amino-1-(2-((1R,3S,4S)-3-((6-chloropyridin-2-yl)carbamoyl)-2-azabicyclo[2.2.1]heptan-2-yl)-2-oxoethyl)-1H-indazole-3-carboxamide]
IC50: 0.1 to 1 µM

NC(=O)n1cc(CC(=O)N2CC[C@H]2C(=O)NCc2cccc(Cl)c2F)c2ccccc21 [Example 186, (S)-3-(2-(2-((3-chloro-2-fluorobenzyl)carbamoyl)azetidin-1-yl)-2-oxoethyl)-1H-indole-1-carboxamide]
IC50: 0.1 to 1 µM

NC(=O)c1nn(CC(=O)N2CCOC[C@H]2C(=O)Nc2cccc(Cl)n2)c2ccccc12 [Example 22, (S)-4-(2-(3-carbamoyl-1H-indazol-1-yl)acetyl)-N-(6-chloropyridin-2-yl)morpholine-3-carboxamide]
IC50: 1 to 10 µM

CC(=O)c1nn(CC(=O)N2[C@H](C(=O)Nc3cccc(Cl)n3)C[C@@H]3CCC[C@@H]32)c2ccc(C)cc12 [Example 176, (2S,3aS,6aS)-1-(2-(3-acetyl-5-methyl-1H-indazol-1-yl)acetyl)-N-(6-chloropyridin-2-yl)octahydrocyclopenta[b]pyrrole-2-carboxamide]
IC50: 0.1 to 1 µM

NC(=O)c1nn(CC(=O)N2[C@H](C(=O)Nc3cccc(Cl)n3)C[C@@H]3CCC[C@@H]32)c2ccc([N+](=O)[O-])cc12 [Example 173, 1-(2-((2S,3aS,6aS)-2-((6-chloropyridin-2-yl)carbamoyl)hexahydrocyclopenta[b]pyrrol-1(2H)-yl)-2-oxoethyl)-5-nitro-1H-indazole-3-carboxamide]
IC50: 1 to 10 µM

COC(=O)c1cc(Cl)nc(NC(=O)[C@@H]2[C@H]3CC[C@H](C3)N2C(=O)Cn2nc(C(N)=O)c3ccccc32)c1 [Example 103, methyl 2-((1R,3S,4S)-2-(2-(3-carbamoyl-1H-indazol-1-yl)acetyl)-2-azabicyclo[2.2.1]heptane-3-carboxamido)-6-chloroisonicotinate]
IC50: 0.1 to 1 µM

NC(=O)c1ccc(Cl)c(F)c1CNC(=O)[C@@H]1[C@H]2CC[C@H](C2)N1C(=O)Cn1nc(C(N)=O)c2ccccc21 [Example 118, 1-(2-((1R,3S,4S)-3-((6-carbamoyl-3-chloro-2-fluorobenzyl)carbamoyl)-2-azabicyclo[2.2.1]heptan-2-yl)-2-oxoethyl)-1H-indazole-3-carboxamide]
IC50: 1 to 10 µM

CC(=O)N1CCN(C(=O)Cn2nc(C(N)=O)c3ccccc32)[C@H](C(=O)Nc2cccc(Cl)n2)C1 [Example 27, (S)-1-(2-(4-acetyl-2-((6-chloropyridin-2-yl)carbamoyl)piperazin-1-yl)-2-oxoethyl)-1H-indazole-3-carboxamide]
IC50: 1 to 10 µM
